Assay results published in patent US12180207B2 (ARRAY BIOPHARMA INC., priority 2018, dated 2024).

Columns and labels:
[1] = target: FGFR1 (SEQ ID NO: 1, amino acids 458-765) (Homo sapiens (Human), UniProt P11362); experiment: LC/MS FGFR1 kobs assay (covalent protein modification); type: binding; details: 500 nM FGFR1, 3 μM compound
Summary of the method: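 Covalent labeling of FGFR1 kinase domain (aa 458-765) tracked over time by intact-protein LC/MS after formic acid quench. kobs derived by fitting DMSO-normalized percent unmodified FGFR1 to an exponential decay model.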

[2] = target: recombinant human FGFR3 (amino acids R397-T806) (Homo sapiens (Human), UniProt P22607); experiment: FGFR3 enzyme activity assay (LanthaScreen TR-FRET); type: biochemical; details: 25 μM ATP, 10 min incubation at 22° C., average of multiple determinations if made, read-out: FGFR3 Enz FRET IC50
Sequence of recombinant human FGFR3 (amino acids R397-T806) (P22607 397-806): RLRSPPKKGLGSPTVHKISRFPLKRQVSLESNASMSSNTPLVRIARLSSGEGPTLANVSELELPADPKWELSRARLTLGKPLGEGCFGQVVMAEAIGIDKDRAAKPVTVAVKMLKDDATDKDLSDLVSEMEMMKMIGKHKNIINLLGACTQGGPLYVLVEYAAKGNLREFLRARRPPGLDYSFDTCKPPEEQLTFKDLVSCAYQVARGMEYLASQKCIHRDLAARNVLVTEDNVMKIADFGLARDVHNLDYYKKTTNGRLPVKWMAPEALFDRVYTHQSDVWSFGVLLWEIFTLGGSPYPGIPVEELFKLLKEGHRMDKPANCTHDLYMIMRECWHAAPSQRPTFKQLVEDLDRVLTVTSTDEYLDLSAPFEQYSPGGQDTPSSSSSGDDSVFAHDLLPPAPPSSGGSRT
Summary of the method: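 GST-HIS6-tagged human FGFR3 (R397-T806) was reacted with 100 nM Alexa Fluor 647-Poly-GT substrate and 25 μM ATP plus compound in HEPES/MgCl2/Triton buffer, pH 7.5, 2% DMSO, for 10 min at 22 °C.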

[3] = target: dephosphorylated FGFR1 (SEQ ID NO: 1, amino acids 458 to 765) (Homo sapiens (Human), UniProt P11362); experiment: FGFR enzyme binding assay (HTRF tracer displacement), FGFR1; details: 5 nM dephosphorylated FGFR1, average of multiple determinations if made
Sequence of dephosphorylated FGFR1 (SEQ ID NO: 1, amino acids 458 to 765) (P11362 458-765): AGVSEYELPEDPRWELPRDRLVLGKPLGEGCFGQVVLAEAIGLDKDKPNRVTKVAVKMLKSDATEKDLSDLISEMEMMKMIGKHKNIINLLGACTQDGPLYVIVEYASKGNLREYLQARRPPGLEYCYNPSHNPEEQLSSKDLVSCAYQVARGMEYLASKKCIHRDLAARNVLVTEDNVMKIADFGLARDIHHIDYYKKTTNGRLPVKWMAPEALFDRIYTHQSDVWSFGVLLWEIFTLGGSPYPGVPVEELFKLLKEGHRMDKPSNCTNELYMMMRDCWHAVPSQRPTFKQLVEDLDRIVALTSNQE
Summary of the method: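 Compounds were tested for displacement of a tracer from human FGFR kinase in a time-resolved FRET binding format. After 60 minutes at 22° C, signal was read at two wavelengths and converted to percent of control, normalised between untreated wells and 1 μM reference inhibitor.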

[4] = target: recombinant human FGFR2 cytoplasmic domain (amino acids 403-822) (Homo sapiens (Human), UniProt P21802); experiment: FGFR2 enzyme activity assay (LanthaScreen TR-FRET); type: biochemical; details: 15 μM ATP, 20 min incubation at 22° C., average of multiple determinations if made, read-out: FGFR2 Enz FRET IC50
Sequence of recombinant human FGFR2 cytoplasmic domain (amino acids 403-822) (P21802 402-821): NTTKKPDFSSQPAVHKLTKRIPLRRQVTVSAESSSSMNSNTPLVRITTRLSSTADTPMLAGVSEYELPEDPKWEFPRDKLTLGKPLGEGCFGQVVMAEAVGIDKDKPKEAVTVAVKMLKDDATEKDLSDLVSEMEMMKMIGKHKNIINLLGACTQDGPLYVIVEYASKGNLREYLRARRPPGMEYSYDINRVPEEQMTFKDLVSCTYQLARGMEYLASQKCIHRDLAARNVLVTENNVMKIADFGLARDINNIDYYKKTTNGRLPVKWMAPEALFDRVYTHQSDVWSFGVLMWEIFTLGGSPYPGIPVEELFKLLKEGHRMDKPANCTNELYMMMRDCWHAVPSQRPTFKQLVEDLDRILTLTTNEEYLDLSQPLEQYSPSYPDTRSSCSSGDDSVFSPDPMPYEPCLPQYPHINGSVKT
Summary of the method: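 His-tagged FGFR2 cytoplasmic domain ([…]) with 100 nM Alexa Fluor 647-poly-GT peptide and 15 μM ATP in HEPES/MgCl2/Triton buffer, pH 7.5, 2% DMSO, 20 min at 22 °C. EDTA-quenched, Eu-PY20 antibody added, TR-FRET read after 60 min.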

[5] = target: recombinant human FGFR1 catalytic domain (amino acids 308-731) (Homo sapiens (Human), UniProt P11362); experiment: FGFR1 enzyme activity assay (LanthaScreen TR-FRET); type: biochemical; details: 20 min incubation at 22° C., average of multiple determinations if made, read-out: FGFR1 Enz FRET IC50
Sequence of recombinant human FGFR1 catalytic domain (amino acids 308-731) (P11362 other isoform, or with tags, fused parts or gaps): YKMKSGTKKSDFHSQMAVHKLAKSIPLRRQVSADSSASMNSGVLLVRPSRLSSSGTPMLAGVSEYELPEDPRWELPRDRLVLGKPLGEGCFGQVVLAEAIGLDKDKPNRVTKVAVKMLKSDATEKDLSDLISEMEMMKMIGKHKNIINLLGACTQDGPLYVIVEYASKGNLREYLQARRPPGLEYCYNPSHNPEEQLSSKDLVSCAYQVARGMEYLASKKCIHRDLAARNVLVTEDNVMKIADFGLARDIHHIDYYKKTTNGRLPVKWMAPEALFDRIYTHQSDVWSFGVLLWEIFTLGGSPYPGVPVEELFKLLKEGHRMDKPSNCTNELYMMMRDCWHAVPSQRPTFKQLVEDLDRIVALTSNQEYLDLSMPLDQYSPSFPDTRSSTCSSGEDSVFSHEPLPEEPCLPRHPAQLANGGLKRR
Summary of the method: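 His-tagged FGFR1 kinase domain with 100 nM Alexa Fluor 647-poly-GT peptide and ATP in pH 7.5 HEPES/MgCl2 buffer with 2% DMSO, 20 min at 22 °C. Quenched with EDTA plus 2 nM Eu-PY20 antibody and read after 60 min. IC50 comes from a 4-parameter fit of percent of control.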

Sequence of FGFR1 (SEQ ID NO: 1, amino acids 458-765) (P11362 458-765): as the sequence (P11362 458-765) above

| SMILES | FGFR1 Enz kobs [1] [min⁻¹] | IC50 [2] [nM] | IC50 [3] [nM] | IC50 [4] [nM] | IC50 [5] [nM] |
| --- | --- | --- | --- | --- | --- |
| C=CC(=O)N1CC(C(=O)N2C3CCC2CN(c2ccc(-c4cc(OC)c5c(C#N)cnn5c4)cn2)C3)C1 [Example 50, 6-(6-(8-(1-acryloylazetidine-3-carbonyl)-3,8-diazabicyclo[3.2.1]octan-3-yl)pyridin-3-yl)-4-methoxypyrazolo[1,5-a]pyridine-3-carbonitrile] | 0.00381 | 10 | 27 | 4 | 24 |
| C=CC(=O)N1CC(C(=O)N2CC3CCC(C2)N3c2ccc(-c3cc(OC)c4c(C#N)cnn4c3)cn2)C1 [Example 51, 6-(6-(3-(1-acryloylazetidine-3-carbonyl)-3,8-diazabicyclo[3.2.1]octan-8-yl)pyridin-3-yl)-4-methoxypyrazolo[1,5-a]pyridine-3-carbonitrile] | 0.00338 | 22 | 70 | 9 | 34 |
| C=CC(=O)N1CC(C(=O)N2C3CC2CN(c2ccc(-c4cc(OC)c5c(C#N)cnn5c4)cn2)C3)C1 [Example 52, 6-(6-(6-(1-acryloylazetidine-3-carbonyl)-3,6-diazabicyclo[3.1.1]heptan-3-yl)pyridin-3-yl)-4-methoxypyrazolo[1,5-a]pyridine-3-carbonitrile] | 0.00086 | 34 | 86 | 14 | 66 |
| C=CC(=O)Nc1ccc(C(=O)N2CC[C@@H](n3cc(-c4cc(OC)c5c(C#N)cnn5c4)cn3)C2)cc1 [Example 55, (R)-N-(4-(3-(4-(3-cyano-4-methoxypyrazolo[1,5-a]pyridin-6-yl)-1H-pyrazol-1-yl)pyrrolidine-1-carbonyl)phenyl)acrylamide] | 0.00277 | 9 | 98 | 5 | 19 |
| C=CC(=O)Nc1cccc(C(=O)N2CC[C@@H](n3cc(-c4cc(OC)c5c(C#N)cnn5c4)cn3)C2)c1 [Example 56, (R)-N-(3-(3-(4-(3-cyano-4-methoxypyrazolo[1,5-a]pyridin-6-yl)-1H-pyrazol-1-yl)pyrrolidine-1-carbonyl)phenyl)acrylamide] | 0.00181 | 10 | 135 | 8 | 28 |
| C=CC(=O)N1CC(C(=O)N2CC[C@@H](n3cc(-c4cc(OC)c5c(C#N)cnn5c4)cn3)C2)C1 [Example 59, (R)-6-(1-(1-(1-acryloylazetidine-3-carbonyl)pyrrolidin-3-yl)-1H-pyrazol-4-yl)-4-methoxypyrazolo[1,5-a]pyridine-3-carbonitrile] | 0.00106 | 16 | 115 | 16 | 47 |
| C=CC(=O)Nc1ccc(C(=O)N2CC[C@H](n3cc(-c4cc(OC)c5c(C#N)cnn5c4)cn3)C2)cc1 [Example 66, (S)-N-(4-(3-(4-(3-cyano-4-methoxypyrazolo[1,5-a]pyridin-6-yl)-1H-pyrazol-1-yl)pyrrolidine-1-carbonyl)phenyl)acrylamide] | 0.00332 | 7 | 72 | 5 | 16 |
| C=CC(=O)Nc1ccc(C(=O)N2CC[C@H](n3cc(-c4cc(OC)c5c(C#N)cnn5c4)cn3)C2)cc1C [Example 70, (S)-N-(4-(3-(4-(3-cyano-4-methoxypyrazolo[1,5-a]pyridin-6-yl)-1H-pyrazol-1-yl)pyrrolidine-1-carbonyl)-2-methylphenyl)acrylamide] | 0.00278 | 6 | 199 | 4 | 16 |
| C=CC(=O)Nc1ccc(C(=O)N2CC[C@H](n3cc(-c4cc(OC)c5c(C#N)cnn5c4)cn3)C2)cc1OC [Example 71, (S)-N-(4-(3-(4-(3-cyano-4-methoxypyrazolo[1,5-a]pyridin-6-yl)-1H-pyrazol-1-yl)pyrrolidine-1-carbonyl)-2-methoxyphenyl)acryla72 mide] | 0.00457 | 6 | 147 | 4 | 18 |

Continued, values first:

| FGFR1 Enz kobs [1] [min⁻¹] | IC50 [2] [nM] | IC50 [3] [nM] | IC50 [4] [nM] | IC50 [5] [nM] | SMILES |
| --- | --- | --- | --- | --- | --- |
| 0.00447 | 4 | 289 | 7 | 16 | C=CC(=O)N1CC(F)(C(=O)N2CCC(n3cc(-c4cc(OC)c5c(C#N)cnn5c4)cn3)CC2)C1 [Example 37, 6-(1-(1-(1-acryloyl-3-fluoroazetidine-3-carbonyl)piperidin-4-yl)-1H-pyrazol-4-yl)-4-methoxypyrazolo[1,5-a]pyridine-3-carbonitrile] |
| 0.00134 | 3 | 33 | 3 | 10 | C=CC(=O)N1CC(C)(C(=O)N2CCC(n3cc(-c4cc(OC)c5c(C#N)cnn5c4)cn3)CC2)C1 [Example 38, 6-(1-(1-(1-acryloyl-3-methylazetidine-3-carbonyl)piperidin-4-yl)-1H-pyrazol-4-yl)-4-methoxypyrazolo[1,5-a]pyridine-3-carbonitrile] |
| 0.01019 | 3 | 26 | 5 | 11 | C=CC(=O)N1CC(C#N)(C(=O)N2CCC(n3cc(-c4cc(OC)c5c(C#N)cnn5c4)cn3)CC2)C1 [Example 39, 6-(1-(1-(1-acryloyl-3-cyanoazetidine-3-carbonyl)piperidin-4-yl)-1H-pyrazol-4-yl)-4-methoxypyrazolo[1,5-a]pyridine-3-carbonitrile] |
| 0.00138 | 2 | 38 | 3 | 9 | C=CC(=O)N1CC(CC)(C(=O)N2CCC(n3cc(-c4cc(OC)c5c(C#N)cnn5c4)cn3)CC2)C1 [Example 40, 6-(1-(1-(1-acryloyl-3-ethylazetidine-3-carbonyl)piperidin-4-yl)-1H-pyrazol-4-yl)-4-methoxypyrazolo[1,5-a]pyridine-3-carbonitrile] |
| 0.00254 | 2 | 61 | 1 | 2 | C=CC(=O)N1CC(OC)(C(=O)N2CCC(n3cc(-c4cc(OC)c5c(C#N)cnn5c4)cn3)CC2)C1 [Example 41, 6-(1-(1-(1-acryloyl-3-methoxyazetidine-3-carbonyl)piperidin-4-yl)-1H-pyrazol-4-yl)-4-methoxypyrazolo[1,5-a]pyridine-3-carbonitrile] |
| 0.00113 | 2 | 43 | 6 | 11 | C=CC(=O)N1CC(C(=O)N2CCC(n3cc(-c4cc(OC)c5c(C#N)cnn5c4)cn3)CC2)C1C (stereo not drawn) [Example 42, 6-(1-(1-(1-acryloyl-2-methylazetidine-3-carbonyl)piperidin-4-yl)-1H-pyrazol-4-yl)-4-methoxypyrazolo[1,5-a]pyridine-3-carbonitrile] |
| 0.0005 | 2 | 54 | 3 | 6 | C=CC(=O)N1CC(C(=O)N2CCC(n3cc(-c4cc(OC)c5c(C#N)cnn5c4)cn3)CC2)C1(C)C (stereo not drawn) [Example 43, 6-(1-(1-(1-acryloyl-2,2-dimethylazetidine-3-carbonyl)piperidin-4-yl)-1H-pyrazol-4-yl)-4-methoxypyrazolo[1,5-a]pyridine-3-carbonitrile] |
| 0.00181 | 5 | 94 | 4 | 6 | C=CC(=O)Nc1ccc(C(=O)N2CC[C@H](n3cc(-c4cc(OC)c5c(C#N)cnn5c4)cn3)C2)c(C)c1 [Example 68, (S)-N-(4-(3-(4-(3-cyano-4-methoxypyrazolo[1,5-a]pyridin-6-yl)-1H-pyrazol-1-yl)pyrrolidine-1-carbonyl)-3-methylphenyl)acrylamide] |
| 0.00422 | 6 | 77 | 6 | 12 | C=CC(=O)Nc1ccc(C(=O)N2CC[C@H](n3cc(-c4cc(OC)c5c(C#N)cnn5c4)cn3)C2)c(OC)c1 [Example 69, (S)-N-(4-(3-(4-(3-cyano-4-methoxypyrazolo[1,5-a]pyridin-6-yl)-1H-pyrazol-1-yl)pyrrolidine-1-carbonyl)-3-methoxyphenyl)acrylamide] |
